According to patent publication US8022036B2, “Use of thymosin alpha 1 for the treatment of immunological diseases” (Sigma-Tau Industrie Farmaceutiche Riunite S.p.A., priority 2006, dated 2011):
No end group written: not given here.

Columns and labels:
[1] = tested on: peripheral CD14+ cells (GM-DCs, FL-DCs); experiment: Human DC generation from peripheral CD14+ cells, surface expression; format: cell-based
Source text: (§1) GM-DCs or FL-DCs were obtained from purified CD14+ monocytes from healthy donors or transplanted patients (1 month post-HSCT) cultured in Iscove's modified medium for 7-9 days, in the presence of rGM-CSF (Schering-Plough, Milan, Italy) and rIL-4 (Peprotech, Inalco, Milan, Italy) or FLT3-L (Immunex Corporation, Seattle, Wash.) (Blood. 2004; 103:4232-4239). DC recovery was between 20-30% reduced in cultures from transplanted patients. Murine GM-DCs or FL-DCs were obtained from bone marrow cells for 7-9 days, as described (Blood. 2004; 103:4232-4239). Thymosin alpha 1 and sThymosin alpha 1 were added to the cultures at 20 ng/mL. DCs (>99% CD11c+ consisting of 90-95% CD8-, 5-10% CD8+, and 1-5% B220+ cells) were purified from spleens (spDCs) by magnetic-activated sorting using CD11c MicroBeads and MidiMacs (Miltenyi Biotech). DC populations were further separated into CD8−, CD8+ and B220+ fractions by means of CD8 or B220 MicroBeads (Miltenyi Biotech). DCs were pulsed in serum-free Iscove medium for 24 hours with live unopsonized Aspergillus conidia or Zymosan from Saccharomyces cerevisiae (Sigma) or CpG-ODN 2006 as described.7 Phagocytosis was done as described (Blood. 2004; 103:4232-4239). Photographs were taken using a high Resolution Microscopy Color Camera AxioCam, using the AxioVision Software Rel. 3.1 (Carl Zeiss, Milan, Italy).
(§2) DCs were analyzed for antigen expression with a FACScan flow cytofluorometer (Becton Dickinson, Mountain View, Calif.) equipped with CELLQuest™ software and using conjugated mAbs from PharMingen (Blood. 2004; 103:4232-4239).
(A) Surface expression of CD11c, CD1a and CD123 on DCs derived from peripheral CD14+ cells of different donors with GM-CSF/IL-4 (GM-DCs) or FLT3L (FL-DCs) in the presence of Thymosin alpha 1. Percent of positive cells is indicated.

[2] = tested on: bone marrow cells (GM-DCs, FL-DCs); experiment: Murine DC generation from bone marrow cells, flow cytometry and light microscopy; format: cell-based, mouse
Source text: as §1, §2
To assess how Thymosin alpha 1 would affect the phenotypic and functional properties of murine DCs, bone marrow cells were grown for 7-9 days in medium containing GM-CSF/IL4 or FLT3L, in the presence of Thymosin alpha 1 or a control, scrambled peptide. After maturation, cells were analyzed by flow cytometry and light microscopy (FIG. 1A).
(A) Surface expression of CD11c, CD 11b and B220 on DCs derived from bone marrow of C57BL6, TLR9−/− or IFN-aβR−/−mice and cultured with GM-CSF/IL-4 (GM-DCs) or FLT3L (FL-DCs) in the presence of Thymosin alpha 1 (+) or the scrambled peptide ( ). Percent of double positive cells is indicated.

GM-DCs or FL-DCs = experiment: Phagocytosis of Aspergillus conidia by human GM- or FL-DCs; format: cell-based
Source text: as §1
(B) Phagocytosis of conidia by GM- or FL-DCs exposed (+) or not (−) to Thymosin alpha 1 from seven recipients of Tcell depleted haploidentical HSCT. The data are the means±SE and expressed as % internalization (numbers within figures). (*) P<0.05, Thymosin alpha 1-treated versus untreated cells.

[3] = tested on: methylcholanthrene-induced fibrosarcoma; conditions: mice; cited from earlier work
[4] = tested on: lung homogenates, TLN CD4+ T cells; experiment: Inflammatory/Th/T reg responses in lung and TLN of infected HSCT mice given DCs (ELISA, ELISPOT, RT-PCR, flow cytometry); format: in vivo, mouse
Procedure: Mice received twice intraperitoneal injections of DCs, at weekly interval, starting a day after HSCT and infected a week after the last DC administration. Three days later, lung homogenates, CD4+ T cells (>98% on FACS analysis), CD4+CD25− (>98%) or CD4+CD25+ (>82%) purified with the specific Miltenyi Biotec isolation kits were assessed for pattern of pro- and anti-inflammatory (TNF-a/IL-10 in lung homogenates), Th1 (IFN-γ) or Th2 (IL-4) cytokine production by CD4+ cells stimulated with Aspergillus-pulsed DCs (Blood. 2003; 102:3807-3814) frequency of CD25+ IL-10^+ TGF-β+ T reg cells, lymphoproliferation and gene expression by RT-PCR. For proliferation, TLN CD4+ T lymphocytes were plated (10^5 cells/well) with 10^5 cells/well irradiated allogeneic splenocytes or autologous spDCs pulsed with conidia or 10 μg/mL Con A for five days before H^3-thymidine labeling.
RNA extraction, synthesis and PCR of cDNA, sequences of gene-specific primers, annealing temperatures and amplification cycles were done as described in J. Immunol. 2006; 176:1712-1723). Amplification efficiencies were validated and normalized against GAPDH.
(A) TNF-a/IL-10 levels were assessed by specific ELISA in lung homogenates and IFN-γ/IL-4 production were assessed in TLN CD4+ T cells cocultured with Aspergillus-pulsed DCs. Bars indicate standard errors. TLN CD4+CD25+ T cells producing IL-10 or TGF-β were numbered by ELISPOT assay. Results are expressed as the mean number of cytokine-producing cells (±SE) per 2×10^5 cells. *P<0.05, DC-treated versus untreated mice. (**) P<0.05, Thymosin alpha 1-treated DCs versus untreated DCs.
(B) Total RNA was extracted from freshly purified CD4+ T cells from TLN of treated or untreated (None) mice. The expressions of the different mRNAs in each cell population were determined by RT-PCR. The expression of a housekeeping gene, Gapdh mRNA, was used as an internal control. The data shown are representative results of three experiments.
(C) Phenotypic analysis of cells isolated from lung or TLN of mice infused or not (None) with different types of DCs, (−) indicating uninfected, untreated mice. CD4+ T cells were sequentially reacted with PE-conjugated anti-CD25 (PC61) and FITC-conjugated anti-CD69 (clone H1.2F3) mAbs. Numbers represent the percentage of positive cells over total cells analyzed. Control staining of cells with irrelevant Ab was used to obtain background fluorescence values. Histograms are representative of one out of four independent experiments.

[5] = tested on: human non-small cell lung cancer (NSCLC) cells; conditions: subcutaneous administration, nude mice; cited from earlier work
[6] = GM-CSF/IL-4-treated cultures, healthy donors
[7] = mice given Thymosin alpha 1-treated GM-DCs

Thymosin alpha 1: naturally occurring thymic peptide; supplied as purified, endotoxin-free sterile lyophilized acetylated polypeptide from SciClone Pharmaceuticals (Ac-SDAAVDTSSEITTKDLKEKKEVVEEAEN; UniProt P06454 2-29, looked up)
mobilization of CD123+ pDCs and CD1a+ DCs in FLT3-L cultures ([1]; FLT3-L cultures): No such effects were observed | mobilization of CD1a+DCs [1, 6]: decreasing that of CD1a+DCs | mobilization of CD123+ pDCs [1, 6]: promoted the mobilization of CD123+ pDCs | B220+CD11c+ cells in FL-DCs ([2]; FLT3L culture, 20 ng/mL): not increased | total yield of cells ([2]; GM-CSF/IL-4 culture, 20 ng/mL): did not affect total yield of cells | expansion of pDCs in GM-DCs from TLR9-/- or IFN-aβR-/- mice ([2]; GM-DCs from knockout mice): not observed | expansion of B220+CD11c+ cells ([2]; Thymosin alpha 1 alone, without GM-CSF/IL-4 or FLT3L): not observed | occurrence of pDCs (B220+CD11c+ cells) in GM-DCs ([2]; bone marrow cells, GM-CSF/IL-4, 7-9 days, peptide 20 ng/mL): greatly increased the occurrence of pDCs in GM-DCs | phagocytosis of GM- and FL-DCs derived from patients (GM-DCs or FL-DCs; patients one month after transplantation): promoted the phagocytosis | phagocytosis in GM-DCs (GM-DCs or FL-DCs; with Thymosin alpha 1 (from 30% without)): 56% | phagocytosis in FL-DCs (GM-DCs or FL-DCs; with Thymosin alpha 1 (from 32% without)): 58% | pulmonary metastases [3]: reduced | compartmentalization of induced T reg (lungs vs TLN), FL-DCs ([4]; Thymosin alpha 1-treated FL-DCs): the opposite was true | TNF-a/IL-10 production in lung homogenates ([4]; Thymosin alpha 1-treated GM-DCs, compared with TNF-a high, IL-10 low in untreated or GM-DC mice): the reverse being true | compartmentalization of induced T reg (lungs vs TLN), GM-DCs ([4]; Thymosin alpha 1 treated GM-DCs): induced T reg in the lungs more than TLN | CD62L marker on CD25+ T cells [4, 7]: stained positive | Foxp3 mRNA in TLN CD4+ T cells (RT-PCR) [4, 7]: expressed | IFN-γ production by TLN CD4+ T cells [4, 7]: higher | IL-4 production by TLN CD4+ T cells [4, 7]: lower | CD69 activation marker on CD4+CD25+ T cells ([4]; mice given Thymosin alpha 1-treated GM-DCs or FL-DCs): did not stain positive | tumor volume [5]: significantly decreased tumor volume
